Read-outs that look alike come from different tables or passages of the source.
Experiments:
[1] = molecular target: rec-L-N-carbamoylase from A.a. (Paenarthrobacter aurescens, UniProt Q9F464); type: biochemical, Arthrobacter aurescens; settings: pH 8.5, homogeneously purified enzyme
Experimental: (§1) The substrate specificity of the carbamoylase was investigated with homogeneously purified enzyme. The latter was obtained after cell maceration and ion exchange chromatography on Streamline-DEAE- and MonoQ media. A solution of the particular substrate was produced in a concentration of 1.8 mM (exception N-carbamoyl-L-methionine: 50 mM) in 0.1 M TRIS-HCl, pH 8.5 and used instead of the standard substrate in the standard activity test. Instead of the trichloroacetic acid (TCA) used in the standard test for stopping, in the case of the substrates N-formyl-D,L-tryptophane, N-carbamoyl-L-thienylalanine and N-acetyl-D,L-tryptophane heat denaturation was used to terminate the reaction (incubation for 10 min in a boiling water bath) and in the case of the substrate N-carbamoyl-D,L-phenylalanine, addition of 900 μl methanol to 100 μl assay solution was used. The concentration of the amino acid was subsequently determined either by HPLC or colorimetrically after reaction with ninhydrin.
(§2) 5 ml of a cell culture induced with rhamnose are centrifuged at 3000 rpm for 5 min in a Heraeus Megafuge, washed with 5 ml buffer (200 mM TRIS-HCl, pH 7.0), re-centrifuged, taken up in 1 ml buffer (200 mM TRIS-HCl, 0.1 mM MnCl2 pH 7.0) and macerated by ultrasound (Ultrasonics Sonicator, microtip, 2×30 sec, duty cycle 50%). Cell fragments are removed by centrifugation in an Eppendorf centrifuge at 13000 rpm, 10 min. The supernatant, designated as raw extract, is used for the enzyme measurement. 100 μl raw extract or cleaned-up enzyme is mixed with 800 μl 2 mM N-carbamoyl amino acid preheated to 37° C. in 100 mM TRIS-HCl, pH 8.5 and incubated 10 min at 37° C. The reaction is stopped by the addition of 400 μl trichloroacetic acid. The precipitated protein is separated by centrifugation in an Eppendorf centrifuge at 13000 rpm for 10 min. The supernatant is subsequently measured in an HPLC or calorimetrically (ninhydrin). The separation of the reaction mixture takes place in an HPLC with an RP-18 column, the mobile solvent is 0.3% (V/V) phosphoric acid, 80% methanol, flow rate 1.0 ml/min. The detection takes place by measuring the UV absorption at a wavelength of 280 nm.

[2] = substrate: NC(=O)NC(Cc1ccccc1)C(=O)O; assay: purified protein, by the assay type; type: biochemical, Arthrobacter aurescens; settings: other: homogeneously purified enzyme, 0.1 M TRIS-HCl, pH 8.5, 37.0 °C
Experimental: as §1, §2

[3] = substrate: NC(=O)N[C@@H](Cc1c[nH]c2ccccc12)C(=O)O; assay: purified protein, by the assay type; type: biochemical, Arthrobacter aurescens; settings: other: homogeneously purified enzyme, 0.1 M TRIS-HCl, pH 8.5, 37.0 °C
Experimental: as §1, §2

[4] = substrate: NC(=O)N[C@@H](Cc1ccc(O)cc1)C(=O)O; assay: purified protein, by the assay type; type: biochemical, Arthrobacter aurescens; settings: other: homogeneously purified enzyme, 0.1 M TRIS-HCl, pH 8.5, 37.0 °C
Experimental: as §1, §2

[5] = substrate: NC(=O)N[C@@H](Cc1cccs1)C(=O)O; assay: purified protein, by the assay type; type: biochemical, Arthrobacter aurescens; settings: other: homogeneously purified enzyme, 0.1 M TRIS-HCl, pH 8.5, 37.0 °C
Experimental: as §1, §2

[6] = substrate: O=CNC(Cc1c[nH]c2ccccc12)C(=O)O; assay: purified protein, by the assay type; type: biochemical, Arthrobacter aurescens; settings: other: homogeneously purified enzyme, 0.1 M TRIS-HCl, pH 8.5, 37.0 °C
Experimental: as §1, §2

[7] = Temperature stability of the rec-L-N-carbamoylase (storage, then standard activity test); type: physicochemical, Arthrobacter aurescens
Experimental: FIG. 2: Standard activity assay of the isolated recombinant Arthrobacter aurescens N-L-carbamoylase enzyme isolated from E.coli. The N-L-carbamoylase was isolated after cell maceration and ion exchange chromatography on Streamline DEAE and MonoQ media. N-L-carbamoylase activity was determined by reacting with the substrate N-carbamoyl-L-tryptophane over 100 hours wherein the concentration of the amino acid tryptophan was determined in order to calculate N-L carbamoylase activity. The N-L-carbamoylase enzyme activity was measured and reached a relative activity level of around 100% between hours 40 and […] of incubation 37° C.
[…] The standard test for determination of activity was carried out at time intervals of 1-100 h.
as §2

[8] = N-L-carbamoylase activity of raw extract of rhamnose-induced E. coli JM109/pAW178-2; type: biochemical, Arthrobacter aurescens; settings: 9 h after rhamnose induction, approximately maximum; N-carbamoyl-L-tryptophane as substrate
Experimental: 1 ml of an overnight culture of E. coli JM109/pAW178-2 (FIG. 1) in LBamp is added into 100 ml fresh LBamp medium in a one-liter Erlenmeyer flask and the latter incubated at 30° C. in a water bath under agitation (200 rpm). 1 ml of a 20% rhamnose solution is added to the culture at an optical density of the culture of 0.5 (measured at a wavelength of 600 nm in a photometer) (end concentration […]) and the culture incubated further. After a further 9 h incubation approximately the maximum of the N-L-carbamoylase activity is achieved, a specific activity of 1.8 units/mg raw extract, measured with N-carbamoyl-L-tryptophane as substrate. No activity was found in cultures which had not been induced with rhamnose.
5 ml of a cell culture induced with rhamnose are centrifuged at 3000 rpm for 5 min in a Heraeus Megafuge, washed with 5 ml buffer (200 mM TRIS-HCl, pH 7.0), re-centrifuged, taken up in 1 ml buffer (200 mM TRIS-HCl, 0.1 mM MnCl2 pH 7.0) and macerated by ultrasound (Ultrasonics Sonicator, microtip, 2×30 sec, duty cycle 50%). Cell fragments are removed by centrifugation in an Eppendorf centrifuge at 13000 rpm, 10 min. The supernatant, designated as raw extract, is used for the enzyme measurement. […] The supernatant is subsequently measured in an HPLC or calorimetrically (ninhydrin). […]

[9] = substrate 1.8 mM in 0.1 M TRIS-HCl, n.n. = can not be detected

Row | Molecule | Activity % [1, 9] | other results
1 | CC(=O)NC(Cc1c[nH]c2ccccc12)C(=O)O (racemic) [N-acetyl-D,L-tryptophane] | n.n. | 
2 | NC(=O)NC(CC(=O)O)C(=O)O (racemic) [N-carbamoyl-D,L-aspartate] | n.n. | 
3 | NC(=O)NC(Cc1ccccc1)C(=O)O (racemic) [N-carbamoyl-D,L-phenylalanine] | 97% | 
4 | O=CNC(Cc1c[nH]c2ccccc12)C(=O)O (racemic) [N-formyl-D-L-tryptophane] | 97% | 
5 | NC(=O)N[C@H](Cc1ccccc1)C(=O)O [N-carbamoyl-D-phenylalanine] | n.n. | 
6 | NC(=O)N[C@@H](C(=O)O)c1ccccc1 [N-carbamoyl-D-phenylglycine] | n.n. | 
7 | NC(=O)N[C@H](Cc1c[nH]c2ccccc12)C(=O)O [N-carbamoyl-D-tryptophane] | n.n. | 
8 | N=C(N)NCCC[C@H](NC(N)=O)C(=O)O [N-carbamoyl-L-arginine] | n.n. | 
9 | NC(=O)N[C@@H](CCC(=O)O)C(=O)O [N-carbamoyl-L-glutamate] | n.n. | 
10 | CSCC[C@H](NC(N)=O)C(=O)O [N-carbamoyl-L-methionine] |  | Activity % ([1]; substrate 50 mM (exception) in 0.1 M TRIS-HCl): 17%
11 | NC(=O)N[C@H](C(=O)O)c1ccccc1 [N-carbamoyl-L-phenylglycine] | n.n. | 
12 | NC(=O)N[C@@H](Cc1cccs1)C(=O)O [N-carbamoyl-L-thienylalanine] | 314% | 
13 | NC(=O)N[C@@H](Cc1c[nH]c2ccccc12)C(=O)O [N-carbamoyl-L-tryptophane] | 100% | 
14 | NC(=O)N[C@@H](Cc1ccc(O)cc1)C(=O)O [N-carbamoyl-L-tyrosine] | 126% | 
15 | NC(=O)NCCC(=O)O [N-carbamoyl-β-alanine] | n.n. | 
16 | O=CN[C@@H](CC(=O)O)C(=O)O [N-formyl-L-aspartate] | n.n. | 
17 | rec-L-N-carbamoylase from A.a. (Paenarthrobacter aurescens) (protein) MTLQKAQAERIEKEIRELSRFSAEGPGVTRLTYTPEHAAARETLIAAMKAAALSVREDALGNIIGRREGTDPELPAIAVGSHFDSVRNGGMFDGTAGVVCALEAARVMLENGYVNRHPFEFIAIVEEEGARFSSGMLGGRAIAGLVADRELDSLVDEDGVSVRQAATAFGLKPGELQAAARSAADLRAFIELHIEQGPILEQEQIEIGVVTSIVGVRALRVAVKGRSDHAGTTPMHLRQDALVPAALMVREVNRFVNEIADGTVATVGHLTVAPGGGNQVPGEVDFTLDLRSPHEESLRVLIDRISVMVGEVASQAGVAADVDEFFNLSPVQLAPTMVDAVREAASALQFTHRDISSGAGHDSMFIAQVTDVGMVFVPSRAGRSHVPEEWTDFDDLRKGTEVVLRVMKALDR |  | Km [2]: 0.7 MM; Km [3]: 0.12 MM; Km [4]: 0.3 MM; Km [5]: 2.3 MM; Km [6]: 8.5 MM
18 | rec-carbamoylase: recombinant L-N-carbamoylase from Arthrobacter aurescens (hyuC gene, SEQ ID NO:2) expressed in E. coli (protein, listed as Arthrobacter aurescens) MTLQKAQAARIEKEIRELSRFSAEGPGVTRLTYTPEHAAARETLIAAMKAAALSVREDALGNIIGRREGTDPELPAIAVGSHFDSVRNGGMFDGTAGVVCALEAARVMLENGYVNRHPFEFIAIVEEEGARFSSGMLGGRAIAGLVADRELDSLVDEDGVSVRQAATAFGLKPGELQAAARSAADLRAFIELHIEQGPILEQEQIEIGVVTSIVGVRALRVAVKGRSDHAGTTPMHLRQDALVPAALMVREVNRFVNEIADGTVATVGHLTVAPGGGNQVPGEVDFTLDLRSPHEESLRVLIDRISVMVGEVASQAGVAADVDEFFNLSPVQLAPTMVDAVREAASALQFTHRDISSGAGHDSMFIAQVTDVGMVFVPSRAGRSHVPEEWTDFDDLRKGTEVVLRVMKALDR |  | activity on storage at 37° C. ([7]; 37° C., 100 h, homogeneously purified recombinant enzyme): almost unchanged; duration of activity at 50° C. ([7]; 50° C.): hours; relative activity level ([7]; between hours 40 and 140 of incubation 37° C., substrate N-carbamoyl-L-tryptophane (FIG. 2)): around 100%; specific activity [8]: 1.8 units/mg raw extract
